Where no end group is shown, it is not given here.
Key:
[1] = test system: PANC-1 pancreatic cancer cells
Procedure: The effect of Peptides 7M and 7MM on PANC-1 pancreatic cancer cells (ATCC #CRL-1469) was studied. Pierce Protein Transfection reagent (Thermo Scientific, 89850) was used to deliver peptide to the cultured cells. PANC-1 pancreatic cancer cells were transfected with 0.625-10 μM Peptide 7M or Peptide 7MM for 3.5 hrs, incubated in a complete media for a duration of two doubling times (48 hours), and assessed for viability by using a CCK-8 colorimetric assay.
The effect of peptide 7α of viability of pancreatic cancer cells was studied. PANC-1 pancreatic cancer cells (ATCC #CRL-1469) were transfected with 1.25-10 μM peptide 7α for 3.5 hrs, incubated in a complete media for a duration of two doubling times, and assessed for viability by using a CCK-8 colorimetric assay (Dojindo Molecular Technologies, Inc.).
(§1) IC50 values were calculated from obtained equations that describe cell viability as a function of peptide concentration.

[2] = test system: DU145 prostate cancer cells
Procedure: DU145 prostate cancer cells (ATCC #HTB-81) were transfected with 1.25-10 μM peptide 7α for 3.5 hrs, incubated in a complete media for a duration of two doubling times, and assessed for viability by using a CCK-8 colorimetric assay (Dojindo Molecular Technologies, Inc.).
DU145 prostate cancer cells (ATCC #HTB-81) were transfected with 1.25-10 μM peptide 7MM for 3.5 hrs, incubated in a complete media for a duration of two doubling times, and assessed for viability by using a CCK-8 colorimetric assay (Dojindo Molecular Technologies, Inc.).
as §1

[3] = test system: U-2 OS osteosarcoma cancer cells
Procedure: as §1

[4] = test system: HT1080 fibrosarcoma cancer cells
Procedure: as §1

[5] = test system: HLF normal primary lung fibroblasts
Procedure: The effect of peptide 7α of viability of HLF normal primary lung fibroblasts was studied. HLF normal primary lung fibroblasts (ATCC #PCS-201-013) were transfected with 1.25-10 μM peptide 7α for 3.5 hrs, incubated in a complete media for a duration of two doubling times, and assessed for viability by using a CCK-8 colorimetric assay (Dojindo Molecular Technologies, Inc.).
The effect of peptide 7MM of viability of normal lung cells was studied. HLF normal primary lung fibroblasts (ATCC #PC S-201-013) were transfected with 1.25-10 μM peptide 7MM for 3.5 hrs, incubated in a complete media for a duration of two doubling times, and assessed for viability by using a CCK-8 colorimetric assay (Dojindo Molecular Technologies, Inc.).
as §1

[6] = test system: BT-549 breast cancer cells
Procedure: The effect of Peptides 7M and 7MM on BT-549 breast cancer cells (ATCC #HTB-122) was studied. Pierce Protein Transfection reagent (Thermo Scientific, 89850) was used to deliver peptide to the cultured cells. BT-549 breast cancer cells were transfected with 0.625-20 μM Peptide 7M or 1.25-10 μM Peptide 7MM for 3.5 hrs, incubated in a complete media for a duration of two doubling times (96 hours), and assessed for viability by using a CCK-8 colorimetric assay.
as §1

[7] = test system: Hs 766T pancreatic cancer cells
Procedure: as §1

[8] = test system: A549 lung cancer cells
Procedure: as §1

[9] = test system: HepG2 liver cancer cells
Procedure: (§2) Pierce Protein Transfection reagent (Thermo Scientific, 89850) was used to deliver peptide to the cultured cells.
as §1

[10] = test system: H596 lung cancer cells
Procedure: as §1

[11] = test system: THLE-3 immortalized normal liver cells
Procedure: as §1

[12] = test system: PC3 prostate cancer cells
Procedure: The effect of peptide 7α of viability of prostate cancer cells was studied. PC3 prostate cancer cells (ATCC #CRL-1435) were transfected with 1.25-10 μM peptide 7α for 3.5 hrs, incubated in a complete media for a duration of two doubling times, and assessed for viability by using a CCK-8 colorimetric assay (Dojindo Molecular Technologies, Inc.).
The effect of peptide 7MM of viability of prostate cancer cells was studied. PC3 prostate cancer cells (ATCC #CRL-1435) were transfected with 1.25-10 μM peptide 7MM for 3.5 hrs, incubated in a complete media for a duration of two doubling times, and assessed for viability by using a CCK-8 colorimetric assay (Dojindo Molecular Technologies, Inc.).
as §1

[13] = test system: HMEC primary mammary epithelial normal cells
Procedure: HMEC mammary epithelial cells (ATCC #PCS-600-010) were transfected with 1.25-20 μM peptide 7α for 3.5 hrs, incubated in a complete media for a duration of two doubling times, and assessed for viability by using a CCK-8 colorimetric assay (Dojindo Molecular Technologies, Inc.).
HMEC primary normal epithelial breast cells (ATCC #PCS-600-010) were transfected with 1.25-10 μM peptide 7MM for 3.5 hrs, incubated in a complete media for a duration of two doubling times, and assessed for viability by using a CCK-8 colorimetric assay (Dojindo Molecular Technologies, Inc.).
as §1

[14] = test system: M059J glioma cancer cells
Procedure: as §2
M059J glioma cancer cells (ATCC #CRL-2366) were transfected with 1.25-10 μM peptide 7α for 3.5 hrs, incubated in a complete media for a duration of two doubling times, and assessed for viability by using a CCK-8 colorimetric assay (Dojindo Molecular Technologies, Inc.).
M059J glioma cancer cells (ATCC #CRL-2366) were transfected with 1.25-10 μM peptide 7MM for 3.5 hrs, incubated in a complete media for a duration of two doubling times, and assessed for viability by using a CCK-8 colorimetric assay (Dojindo Molecular Technologies, Inc.).
as §1

[15] = target: T1, CMG helicase (Xenopus laevis, UniProt Q91876); assay: S phase arrested Xenopus egg extracts, chromatin RPA Western blot as readout for DNA helicase activity; type: biochemical; conditions: 250 μM peptide, 90 min incubation
T1 construct: from tissue; host or cells: S phase arrested Xenopus egg extracts (endogenous proteins on chromatin)
Procedure: The peptide of SEQ ID NO: 1 was synthesized using solid-phase synthesis. The product was purified using HPLC to a purity of about 99%. 250 μM of peptide Ex7 ([…]) (SEQ ID NO: 8), peptide 7N (circularized—KGEVLQMEDDLV) (SEQ ID NO: 9), peptide 7M (ISFQLMLCVLDYF) (SEQ ID NO: 1), or peptide 7C (IKLSPPMLLKEPYK) (SEQ ID NO: 10) were incubated in S phase arrested Xenopus egg extracts. Following a 90 min incubation, chromatin was isolated and probed by Western blotting for RPA protein as a readout for DNA helicase activity. Additionally, peptide 7MN (ISFQLML) (SEQ ID NO: 5), peptide 7MM (QLMLCVL) (SEQ ID NO: 2), and peptide 7MC (LCVLDYF) (SEQ ID NO: 6) were tested.
250 μM of each of peptides 7α (DLVISFQLMLCVLDYFIK) (SEQ ID NO: 14), 7α-ln (LVISFQLMLCVLDYFIK) (SEQ ID NO: 22), 7α-2n (VISFQLMLCVLDYFIK) (SEQ ID NO: 23), 7α-3n (ISFQLMLCVLDYFIK) (SEQ ID NO: 24), 7α-4n (SFQLMLCVLDYFIK) (SEQ ID NO: 25), 7α-5n (FQLMLCVLDYFIK) (SEQ ID NO: 26), 7α-6n (QLMLCVLDYFIK) (SEQ ID NO: 27), 7α-7n (LMLCVLDYFIK) (SEQ ID NO: 28), 7α-17c (DLVISFQLMLCVLDYF) (SEQ ID NO: 29), 7α-16c (DLVISFQLMLCVLDY) (SEQ ID NO: 30), 7α-15c (DVISFQLMLCVLD) (SEQ ID NO: 31), 7α-14c (DVISFQLMLCVL) (SEQ ID NO: 32), 7α-11c (DVISFQLML) (SEQ ID NO: 33) was incubated in S phase arrested Xenopus egg extracts. Following a 90 min incubation, chromatin was isolated and probed by Western blotting for RPA protein as a readout for DNA helicase activity.

[16] = test system: hTERT-HPNE immortalized normal pancreatic cells
Procedure: as §1

[17] = test system: HCT-116 colorectal cancer cells
Procedure: The effect of peptide 7MM of viability of colorectal cancer cells was studied. HCT-116 colorectal cancer cells (ATCC #CCL-247) were transfected with 1.25-10 μM peptide 7MM for 3.5 hrs, incubated in a complete media for a duration of two doubling times, and assessed for viability by using a CCK-8 colorimetric assay (Dojindo Molecular Technologies, Inc.).
as §1

[18] = test system: SVG p12 immortalized astroglia cells
Procedure: as §1

[19] = transfected 1.25-10 μM for 3.5 hrs, two doubling times, CCK-8
[20] = transfected 1.25-20 μM for 3.5 hrs, two doubling times, CCK-8

Sequence: DLVISFQLMLCVLDYFIK [7α, DLVISFQLMLCVLDYFIK]
- IC50 ([1]; 48 h): 6.4 µM
- effect on viability of PANC-1 pancreatic cancer cells [1, 19]: decreases viability
- IC50 [2]: 10.3 µM
- effect on viability of DU145 prostate cancer cells [2, 19]: decreases viability
- IC50 [3]: 14.5 µM
- effect on viability of U-2 OS osteosarcoma cancer cells [3, 19]: decreases viability
- IC50 [4]: 4.4 µM
- effect on viability of HT1080 fibrosarcoma cancer cells [4, 19]: decreases viability
- IC50 [5]: 225 µM
- effect on viability of HLF normal primary lung fibroblasts [5, 19]: does not affect viability
- IC50 ([6]; 96 h): 4.6 µM
- effect on viability of BT-549 breast cancer cells [6, 19]: decreases viability
- IC50 [7]: 7.4 µM
- effect on viability of Hs 766T pancreatic cancer cells [7, 19]: decreases viability
- IC50 [8]: 16.5 µM
- effect on viability of A549 lung cancer cells [8, 19]: decreases viability
- IC50 ([9]; 96 h): 3.7 µM
- effect on viability of HepG2 liver cancer cells ([9]; transfected 1.25-5 μM for 3.5 hrs, two doubling times, CCK-8): decreases viability
- IC50 [10]: 7.5 µM
- effect on viability of H596 lung cancer cells [10, 19]: decreases viability
- IC50 [11]: 119 µM
- effect on viability of THLE-3 normal liver cells [11, 19]: does not affect viability
- IC50 [12]: 9.6 µM
- effect on viability of PC3 prostate cancer cells [12, 19]: decreases viability
- IC50 [13]: 115 µM
- effect on viability of HMEC normal mammary epithelial cells [13, 20]: does not affect viability
- IC50 ([14]; 48 h): 7.1 µM
- effect on viability of M059J glioma cells [14, 19]: decreases viability
- inhibition of CMG helicase in vitro (chromatin RPA Western blot) [15]: inhibit CMG helicase in vitro
- IC50 [16]: 366 µM
- effect on viability of hTERT-HPNE normal pancreatic cells [16, 19]: does not affect viability
- IC50 [17]: 9.5 µM
- effect on viability of HCT-116 colorectal cancer cells [17, 19]: decreases viability
- IC50 [18]: 113 µM
- effect on viability of SVG p12 normal brain cells [18, 20]: does not affect viability

— patent publication US12297295B2, “Peptide for treating cancer” (Saint Leo University, priority 2019, dated 2025)
